pIC50: −log10 of the molar value. Structures can show the parent of a compound that is named as a salt.
Biological target: T1, human β-Secretase (Homo sapiens, UniProt P56817)
T1 construct: The soluble part of the human β-Secretase (AA 1-AA 460) was cloned; made in house
Test: TR-FRET assay
Type: biochemical

T1 sequence (P56817 22-460): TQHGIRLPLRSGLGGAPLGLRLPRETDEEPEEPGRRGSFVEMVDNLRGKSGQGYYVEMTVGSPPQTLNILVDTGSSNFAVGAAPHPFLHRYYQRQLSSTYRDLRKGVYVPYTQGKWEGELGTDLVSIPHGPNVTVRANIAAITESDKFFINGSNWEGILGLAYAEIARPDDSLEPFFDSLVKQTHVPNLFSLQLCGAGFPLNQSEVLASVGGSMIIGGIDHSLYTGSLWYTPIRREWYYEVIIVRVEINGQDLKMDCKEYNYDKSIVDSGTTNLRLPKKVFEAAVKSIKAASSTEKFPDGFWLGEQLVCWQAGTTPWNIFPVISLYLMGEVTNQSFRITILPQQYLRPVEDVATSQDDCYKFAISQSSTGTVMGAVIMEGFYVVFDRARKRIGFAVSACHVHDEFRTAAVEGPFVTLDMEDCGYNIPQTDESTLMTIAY

Row | Compound | pIC50
1 | NC1=NC(c2ccncc2)(c2cccc(-c3cccnc3)c2)c2cc(F)ccc21 (stereo not drawn) [Example 83, 6-Fluoro-1-pyridin-4-yl-1-(3-pyridin-3-ylphenyl)-1H-isoindol-3-amine] | 7.12
2 | COc1ccc(C2(c3cccc(-c4cc(Cl)cc(Cl)c4)c3)N=C(N)c3ccccc32)cc1 (stereo not drawn) [Example 88, 1-(3′,5′-Dichlorobiphenyl-3-yl)-1-(4-methoxyphenyl)-1H-isoindol-3-amine acetate] | 7.19
3 | CC(C)c1cc(C2(c3cccc(-c4cncnc4)c3)N=C(N)c3ccccc32)ccn1 (stereo not drawn) [Example 114, 1-(2-Isopropylpyridin-4-yl)-1-(3-pyrimidin-5-ylphenyl)-1H-isoindol-3-amine] | 6.52
4 | CS(=O)(=O)Oc1ccc(C2(c3cccc(-c4cccnc4F)c3)N=C(N)c3ccccc32)cc1 (stereo not drawn) [Example 37, Methanesulfonic acid 4-{3-amino-1-[3-(2-fluoro-pyridin-3-yl)-phenyl]-1H-isoindol-1-yl}-phenyl ester trifluoroacetate] | 6.24
5 | NC1=NC(c2ccncc2)(c2ccc(F)c(-c3cccnc3F)c2)c2ccccc21 (stereo not drawn) [Example 105, 1-[4-Fluoro-3-(2-fluoropyridin-3-yl)phenyl]-1-pyridin-4-yl-1H-isoindol-3-amine] | 7.54
6 | COc1ccc(C2(c3cccc(-c4cccnc4F)c3)N=C(N)c3ccccc32)cc1C (stereo not drawn) [Example 24, 3-[3-(2-Fluoro-pyridin-3-yl)-phenyl]-3-(4-methoxy-3-methyl-phenyl)-3H-isoindol-1-ylamine trifluoroacetate] | 7.27
7 | N#Cc1cncc(-c2cccc(C3(c4ccncc4)N=C(N)c4ccccc43)c2)c1 (stereo not drawn) [Example 77, 5-[3-(3-Amino-1-pyridin-4-yl-1H-isoindol-1-yl)phenyl]nicotinonitrile acetate] | 6.82
8 | NC1=NC(c2cccc(-c3cncnc3)c2)(C2CC2)c2ccccc21 (stereo not drawn) [Example 92, 1-Cyclopropyl-1-(3-pyrimidin-5-ylphenyl)-1H-isoindol-3-amine acetate] | 6.57
9 | Cc1ccc(-c2cccc(C3(c4ccncc4)N=C(N)c4ccccc43)c2)o1 (stereo not drawn) [Example 63, 1-[3-(5-Methyl-2-furyl)phenyl]-1-pyridin-4-yl-1H-isoindol-3-amine acetate] | 5.96
10 | COc1ccc(C2(c3cccc(-c4cncnc4)c3)N=C(N)c3ccccc32)cc1C (stereo not drawn) [Example 23, 3-(4-Methoxy-3-methyl-phenyl)-3-(3-pyrimidin-5-yl-phenyl)-3H-isoindol-1-ylamine trifluoroacetate] | 7.06
11 | NC1=NC(c2cccc(-c3cccnc3F)c2)(c2ccnc(Cl)c2)c2ccccc21 (stereo not drawn) [Example 121, 1-(2-Chloropyridin-4-yl)-1-[3-(2-fluoropyridin-3-yl)phenyl]-1H-isoindol-3-amine] | 7.10
12 | NC1=NC(c2ccc(OC(F)(F)F)cc2)(c2cccc(-c3cncnc3)c2)c2ccccc21 (stereo not drawn) [Example 57, 1-(3-Pyrimidin-5-ylphenyl)-1-[4-(trifluoromethoxy)phenyl]-1H-isoindol-3-amine 0.25 acetate] | 6.74
13 | COc1cncc(-c2cccc(C3(c4ccc5c(c4)OCCO5)N=C(N)c4ccccc43)c2)c1 (stereo not drawn) [Example 16, 3-(2,3-Dihydrobenzo[b][1,4]dioxin-6-yl)-3-(3-(5-methoxypyridin-3-yl)phenyl)-3H-isoindol-1-amine trifluoroacetate] | 6.37
14 | NC1=NC(c2cccc(-c3cccnc3)c2)(c2ccc3c(c2)OCO3)c2ccccc21 (stereo not drawn) [Example 28, 3-Benzo[1,3]dioxol-5-yl-3-(3-pyridin-3-yl)-3H-isoindol-1-ylamine trifluoroacetate] | 5.79
15 | NC1=NC(c2cccc(-c3cncc(F)c3)c2)(c2ccncc2F)c2ccccc21 (stereo not drawn) [Example 71, 1-(3-Fluoropyridin-4-yl)-1-[3-(5-fluoropyridin-3-yl)phenyl]-1H-isoindol-3-amine 0.5 acetate] | 6.72
16 | COc1ccc(C2(c3cccc(-c4cncc(OC)c4)c3)N=C(N)c3ccc(F)cc32)cc1 (stereo not drawn) [Example 81, 6-Fluoro-1-(4-methoxyphenyl)-1-[3-(5-methoxypyridin-3-yl)phenyl]-1H-isoindol-3-amine] | 7.59
17 | NC1=NC(c2ccc(F)c(-c3cncnc3)c2)(c2ccncc2F)c2ccccc21 (stereo not drawn) [Example 74, 1-(3-Fluoropyridin-4-yl)-1-(4-fluoro-3-pyrimidin-5-ylphenyl)-1H-isoindol-3-amine 1.25 acetate] | 6.82
18 | NC1=NC(c2ccc(OC(F)(F)F)cc2)(c2cccc(-c3cncc(F)c3)c2)c2ccccc21 (stereo not drawn) [Example 56, 1-[3-(5-Fluoropyridin-3-yl)phenyl]-1-[4-(trifluoromethoxy)phenyl]-1H-isoindol-3-amine 0.75 acetate] | 6.70
19 | NC1=NC(c2ccncc2)(c2cccc(-c3cncc(F)c3)c2)c2ccccc21 (stereo not drawn) [Example 67, 1-[3-(5-Fluoropyridin-3-yl)phenyl]-1-pyridin-4-yl-1H-isoindol-3-amine 0.75 acetate] | 7.04
20 | COc1ccc(C2(c3cccc(-c4ccccc4C(N)=O)c3)N=C(N)c3ccccc32)cc1 (stereo not drawn) [Example 55, 3′-[3-Amino-1-(4-methoxyphenyl)-1H-isoindol-1-yl]biphenyl-2-carboxamide 0.5 acetate] | 5.70

Row | Compound | pIC50
21 | COc1ccc(C#N)c(-c2cccc(C3(C4CC4)N=C(N)c4ccccc43)c2)c1 (stereo not drawn) [Example 91, 3′-(3-Amino-1-cyclopropyl-1H-isoindol-1-yl)-5-methoxybiphenyl-2-carbonitrile acetate] | 6.38
22 | COc1cc(OS(C)(=O)=O)cc(-c2cccc(C3(c4ccc(OC)c(C)c4)N=C(N)c4ccccc43)c2)c1 (stereo not drawn) [Example 25, Methanesulfonic acid 3′-[3-amino-1-(4-methoxy-3-methyl-phenyl)-1H-isoindol-1-yl]-5-methoxy-biphenyl-3-yl ester trifluoroacetate] | 7.07
23 | COc1ccc(F)c(-c2cccc(C3(c4ccncc4)N=C(N)c4ccccc43)c2)c1 (stereo not drawn) [Example 103, 1-(2′-Fluoro-5′-methoxybiphenyl-3-yl)-1-pyridin-4-yl-1H-isoindol-3-amine] | 6.96
24 | COc1ccc(C2(c3cccc(-c4ccsc4C=O)c3)N=C(N)c3ccccc32)cc1 (stereo not drawn) [Example 48, 3-{3-[3-Amino-1-(4-methoxyphenyl)-1H-isoindol-1-yl]phenyl}thiophene-2-carbaldehyde 1.5 acetate] | 6.52
25 | NC1=NC(c2cccc(-c3cncnc3)c2)(c2ccncc2F)c2ccccc21 (stereo not drawn) [Example 72, 1-(3-Fluoropyridin-4-yl)-1-(3-pyrimidin-5-ylphenyl)-1H-isoindol-3-amine 1.25 acetate] | 6.60
26 | NC1=NC(c2ccc(O)cc2)(c2ccc(O)cc2)c2ccccc21 [Example 6, 4,4′-(3-Amino-isoindole-1,1-diyl)-bis-phenol] | 5.45
27 | NC1=NC(c2ccncc2)(c2cccc(-c3cccnc3F)c2)c2ccccc21 (stereo not drawn) [Example 42, 3-[3-(2-Fluoro-pyridin-3-yl)-phenyl]-3-pyridin-4-yl-3H-isoindol-1-ylamine trifluoroacetate] | 6.96
28 | CC(C)Cn1cc(-c2cccc(C3(c4ccncc4)N=C(N)c4ccccc43)c2)cn1 (stereo not drawn) [Example 62, 1-[3-(1-Isobutyl-1H-pyrazol-4-yl)phenyl]-1-pyridin-4-yl-1H-isoindol-3-amine 0.25] | < 5.00
29 | COc1ccc(C2(c3cccc(-c4cccc(OC)c4)c3)N=C(N)c3ccccc32)cc1 (stereo not drawn) [Example 2, 3-(3′-Methoxy-biphenyl-3-yl)-3-(4-methoxy-phenyl)-3H-isoindol-1-ylamine trifluoroacetate] | 6.96
30 | COc1ncc(C2(c3cccc(-c4cccc(OC)c4F)c3)N=C(N)c3ccccc32)cn1 (stereo not drawn) [Example 109, 1-(2′-Fluoro-3′-methoxybiphenyl-3-yl)-1-(2-methoxypyrimidin-5-yl)-1H-isoindol-3-amine] | 6.12
31 | CC1(c2cccc(-c3cncnc3)c2)N=C(N)c2ccccc21 (stereo not drawn) [Example 95, 1-Methyl-1-(3-pyrimidin-5-ylphenyl)-1H-isoindol-3-amine acetate] | 5.70
32 | COc1cncc(-c2cccc(C3(c4ccc5c(c4)OCO5)N=C(N)c4ccccc43)c2)c1 (stereo not drawn) [Example 32, 3-Benzo[1,3]dioxol-5-yl-3-[3-(5-methoxy-pyridin-3-yl)-phenyl]3H isoindol-1-ylamine trifluoroacetate] | 6.15
33 | COc1ccc(C2(c3ccc(OS(=O)(=O)C(F)(F)F)c(-c4cccc(OC)c4)c3)N=C(N)c3ccccc32)cc1 (stereo not drawn) [Example 3, Trifluoro-methanesulfonic acid 5-[3-amino-1-(4-methoxy-phenyl)-1H-isoindol-1-yl]-3′-methoxy-biphenyl-2-yl ester trifluoroacetate] | 4.92
34 | NC1=NC(c2ccncc2)(c2cccc(-c3cncnc3)c2)c2cc(Cl)ccc21 (stereo not drawn) [Example 129, 6-Chloro-1-pyridin-4-yl-1-(3-pyrimidin-5-ylphenyl)-1H-isoindol-3-amine] | 7.07
35 | COc1ccc(C#N)c(-c2cccc(C3(C)N=C(N)c4ccccc43)c2)c1 (stereo not drawn) [Example 93, 3′-(3-Amino-1-methyl-1H-isoindol-1-yl)-5-methoxybiphenyl-2-carbonitrile acetate] | 5.36
36 | NC(=O)c1ccccc1-c1cccc(C2(c3ccncc3)N=C(N)c3ccccc32)c1 (stereo not drawn) [Example 64, 3′-(3-Amino-1-pyridin-4-yl-1H-isoindol-1-yl)biphenyl-2-carboxamide 0.25 acetate] | < 5.51
37 | NC1=NC(c2cccc(-c3cncnc3)c2)(c2ccc3c(c2)OCCO3)c2ccccc21 (stereo not drawn) [Example 18, 3-(2,3-Dihydrobenzo[b][1,4]dioxin-6-yl)-3-(3-(pyrimidin-5-yl)phenyl)-3H-isoindol-1-amine trifluoroacetate] | 6.23
38 | COc1ccc(C2(c3ccc(O)c(-c4cncnc4)c3)N=C(N)c3ccccc32)cc1 (stereo not drawn) [Example 8, 4-[3-Amino-1-(4-methoxy-phenyl)-1H-isoindol-1-yl]-2-pyrimidin-5-yl-phenol trifluoroacetate] | 7.40
39 | COc1cccc(-c2cccc(C3(c4ccncc4F)N=C(N)c4ccccc43)c2)c1F (stereo not drawn) [Example 100, 1-(2′-Fluoro-3′-methoxybiphenyl-3-yl)-1-(3-fluoropyridin-4-yl)-1H-isoindol-3-amine] | 6.66
